This note sets out measurements from patent EP0728012B1, “NOVEL GnRH ANALOGUES WITH ANTITUMOUR EFFECTS AND PHARMACEUTICAL COMPOSITIONS THEREOF” (Lovas, Sandor, priority 1994, dated 1996).

Experiment [1] concerns PC3. Nature of the experiment: In vitro inhibition of cell proliferation (Example 19). The class given is cell-based, human. Conditions: 30 µM active substance, conjugate, treated once. How it is done:
(§1) The procedure of treatment was as follows. After trypsinization the cells, 400,000 cells of MCF-7, MDA-MB-231 human mammary carcinoma, PC3 human prostate carcinoma or Ishikawa human endometrium tumour each were passed into Petri dishes of 10 cm in diameter. Starting from the day following transfer, the cells were treated with the substances to be tested in solution prepared with the nutrient medium during the exponential growth phase. The cultures were treated with 1 to 50 µM (calculated for the total volume of the culture) or MI-1544 GnRH antagonist, MI-1892 chicken GnRH antagonist or SJ-1004 GnRH antagonist analogues as well as synthetic lamprey GnRH-III hormone every two days and the cell count was determined on the 7th day.

Experiment [2] has as its system Ishikawa. Conditions: 30 µM active substance, conjugate, treated once. Here is the method: as §1, with “antagonist analogues as well as synthetic lamprey GnRH-III hormone every two days and the cell count was determined” left out
Experiment [3] concerns cellular immune response. Put plainly: Cellular immune response (rosette formation against BRBC antigen). Format: in vivo. Conditions: mice; dose not stated. An excerpt:
(§2) The immunosuppressive side effect of cytostatics used in tumour therapy is commonly known. This effect can be compensated to a certain grade by various immunostimulants (endotoxin, levamisole). Polypeptides with much […] molecular weights (about 40,000 to 80,000) are also capable of protecting against immunosuppressive effect [Gaál et al: J. Biol. Resp. Modif., 5, 148-159 (1986)]. The molecular weight of the novel polyanionic P-GFLG-OH macromolecule tested by us is about 10,000, that of MI-1892 is about 2000, i.e. relatively low; therefore, their immunostimulatory activity was unexpected.

Experiment [4] concerns MCF-7. The conditions noted are these: MCF-7; 30 µM active substance; conjugate, treated once; cell count on 7th day. Here is the method:
(§3) The procedure of treatment was as follows. After trypsinization the cells, 400,000 cells of MCF-7, MDA-MB-231 human mammary carcinoma, PC3 human prostate carcinoma or Ishikawa human endometrium tumour each were passed into Petri dishes of 10 cm in diameter. Starting from the day following transfer, the cells were treated with the substances to be tested in solution prepared with the nutrient medium during the exponential growth phase. […]

The subject of experiment [5] is MDA-MB-231. The conditions noted are these: MDA-MB-231; 30 µM active substance; conjugate, treated once. Here is the method: as §3
Experiment [6] relates to humoral immune response. Nature of the experiment: Humoral immune response (antibody production of B-lymphocytes). The class given is in vivo. Conditions: mice; dose not stated.
Excerpt: as §2

The nature of experiment [7]: Castration effect: uterus weight of xenograft-bearing animals. Conditions: animals bearing MCF-7 xenografts; treatment for four weeks. The class given is in vivo, mice. From the text:
The castration effect is illustrated by the following data.

On to “Ac-D-Trp^1,3,D-Cpa^2, {Lys[n-poly(N-vinyl pyrrolidone-co-maleic acid)-Gly-Phe-Leu-Gly-]}^5, [a-Asp(DEA)]^6, D-Ala^10-GnRH [P-GFLG-1892]”, for which the “% Inhibition of cell division (proliferation)” value came to 51% in experiment [1], 91% in experiment [2], 45% in experiment [4] and 42% in experiment [5]. Moreover, in experiment [3], the “increase of the cellular immune response” value was “two-fold”. Further, the “increase of the humoral immune response” value in experiment [6] is recorded as “possesses an immunostimulatory effect”.
In the case of “Ac-D-Trp^1,3,D-Cpa^2,{Lys(n-poly-(N-vinylpyrrolidone-co-maleic acid)-Gly-Phe-Leu-Gly]}^6,D-Ala^10-GnRH [P-GFLG-1544]”, the uterus weight in experiment [7] is 0.1149 ± 0.0110 g. For the same substance, the “% Inhibition of cell division (proliferation)” value is 68.5% in experiment [1], 95% in experiment [2], 58% in experiment [4] and 45% in experiment [5].
